Results as given in PubChem BioAssay (NCI).
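1) Cells in 96-well plates. 2) Compound, 48 h, 5 concentrations. 3) Linear interpolation between surrounding doses. 4) Unreached endpoint = highest concentration. Definition used: TGI = concentration required for complete inhibition of growth.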

Tests used:
Assay in all cases: NCI anticancer screen, dose series, 48 h
LOX IMVI melanoma = system: LOX IMVI melanoma
SK-MEL-2 melanoma = system: SK-MEL-2 melanoma
SNB-75 CNS = system: SNB-75 CNS
HCT-116 colon = system: HCT-116 colon
NCI-H23 lung = system: NCI-H23 lung
MDA-MB-435 = system: MDA-MB-435
HOP-92 NSCLC = system: HOP-92 NSCLC
DLD-1 colon = system: DLD-1 colon
ACHN renal = system: ACHN renal
K-562 leukemia = system: K-562 leukemia
OVCAR-8 ovarian = system: OVCAR-8 ovarian
SNB-19 CNS = system: SNB-19 CNS
LXFL 529 NSCLC = system: LXFL 529 NSCLC
HT29 colon = system: HT29 colon
SK-MEL-28 melanoma = system: SK-MEL-28 melanoma
DMS 114 small cell lung = system: DMS 114 small cell lung
NCI-H460 lung = system: NCI-H460 lung
A549 NSCLC = system: A549 NSCLC
MDA-MB-231 breast = system: MDA-MB-231 breast
PC-3 prostate = system: PC-3 prostate
SNB-78 CNS = system: SNB-78 CNS
SK-OV-3 ovarian = system: SK-OV-3 ovarian
NCI-H226 lung = system: NCI-H226 lung
SF-539 CNS = system: SF-539 CNS
SF-295 CNS = system: SF-295 CNS
TK-10 renal = system: TK-10 renal
SR leukemia = system: SR leukemia
A498 renal = system: A498 renal
UO-31 renal = system: UO-31 renal
HL-60(TB) leukemia = system: HL-60(TB) leukemia
U251 CNS = system: U251 CNS
M19-MEL melanoma = system: M19-MEL melanoma
RXF 393 renal = system: RXF 393 renal
CCRF-CEM leukemia = system: CCRF-CEM leukemia
DMS 273 small cell lung = system: DMS 273 small cell lung
UACC-62 melanoma = system: UACC-62 melanoma
XF 498 CNS = system: XF 498 CNS
RPMI-8226 leukemia = system: RPMI-8226 leukemia
MCF7 breast = system: MCF7 breast
SW-620 colon = system: SW-620 colon
SK-MEL-5 melanoma = system: SK-MEL-5 melanoma
DU-145 prostate = system: DU-145 prostate
EKVX NSCLC = system: EKVX NSCLC
HCC-2998 colon = system: HCC-2998 colon
KM20L2 colon = system: KM20L2 colon
NCI/ADR-RES ovarian = system: NCI/ADR-RES ovarian
HOP-18 NSCLC = system: HOP-18 NSCLC
MDA-N = system: MDA-N
T-47D breast = system: T-47D breast
OVCAR-4 ovarian = system: OVCAR-4 ovarian
BT-549 breast = system: BT-549 breast
HS 578T breast = system: HS 578T breast
SN12C renal = system: SN12C renal
NCI-H522 lung = system: NCI-H522 lung
SF-268 CNS = system: SF-268 CNS
M14 melanoma = system: M14 melanoma
CAKI-1 renal = system: CAKI-1 renal
KM12 colon = system: KM12 colon
UACC-257 melanoma = system: UACC-257 melanoma
IGROV1 ovarian = system: IGROV1 ovarian
OVCAR-5 ovarian = system: OVCAR-5 ovarian
786-0 renal = system: 786-0 renal
MALME-3M melanoma = system: MALME-3M melanoma
OVCAR-3 ovarian = system: OVCAR-3 ovarian
HCT-15 colon = system: HCT-15 colon
HOP-62 NSCLC = system: HOP-62 NSCLC
COLO 205 colon = system: COLO 205 colon
RXF-631 renal = system: RXF-631 renal
MOLT-4 leukemia = system: MOLT-4 leukemia

In the case of `Cn1c2ccccc2c2ccc3c(c21)C(=O)C=CC3=O`, the TGI (LOX IMVI melanoma) was 10.5 µM, the TGI (SK-MEL-2 melanoma) was 29.9 µM and the TGI (SNB-75 CNS) was 32.5 µM. It also gave a TGI (HCT-116 colon) of 10.9 µM, a TGI (NCI-H23 lung) of 27.3 µM and a TGI (MDA-MB-435) of 10.9 µM. It also gave a TGI (HOP-92 NSCLC) of 4.66 µM, a TGI (DLD-1 colon) of 6.02 µM and a TGI (ACHN renal) of 8.33 µM. For the same compound, the TGI (K-562 leukemia) was greater than 45.1 µM, the TGI (OVCAR-8 ovarian) was 31.1 µM and the TGI (SNB-19 CNS) was 46.4 µM. The TGI (LXFL 529 NSCLC) was 8.26 µM, the TGI (HT29 colon) was 26 µM and the TGI (SK-MEL-28 melanoma) was 25.7 µM. For the same compound, the TGI (DMS 114 small cell lung) was 21.5 µM, the TGI (NCI-H460 lung) was 46.4 µM and the TGI (A549 NSCLC) was 61 µM. It also gave a TGI (MDA-MB-231 breast) of 18.7 µM, a TGI (PC-3 prostate) of 12.2 µM and a TGI (SNB-78 CNS) of 48.4 µM. For the same compound, the TGI (SK-OV-3 ovarian) was 33.2 µM, the TGI (NCI-H226 lung) was 51 µM and the TGI (SF-539 CNS) was 26.3 µM. The TGI (SF-295 CNS) was 42.1 µM, the TGI (TK-10 renal) was 12.2 µM and the TGI (SR leukemia) was 15.9 µM. The TGI (A498 renal) was greater than 59.4 µM, the TGI (UO-31 renal) was 13.7 µM and the TGI (HL-60(TB) leukemia) was 11.8 µM. It also gave a TGI (U251 CNS) of 25.1 µM, a TGI (M19-MEL melanoma) of 24.5 µM and a TGI (RXF 393 renal) of 5.96 µM. For the same compound, the TGI (CCRF-CEM leukemia) was 14.5 µM, the TGI (DMS 273 small cell lung) was 25.8 µM and the TGI (UACC-62 melanoma) was 26.7 µM. The TGI (XF 498 CNS) was 4.88 µM, the TGI (RPMI-8226 leukemia) was 14.6 µM and the TGI (MCF7 breast) was 8.96 µM. For the same compound, the TGI (SW-620 colon) was 4.46 µM, the TGI (SK-MEL-5 melanoma) was 31 µM and the TGI (DU-145 prostate) was 29.5 µM. It also gave a TGI (EKVX NSCLC) of 38.6 µM, a TGI (HCC-2998 colon) of 15.1 µM and a TGI (KM20L2 colon) of 33.9 µM. It also gave a TGI (NCI/ADR-RES ovarian) of 14.4 µM, a TGI (HOP-18 NSCLC) of 5.58 µM and a TGI (MDA-N) of 19.3 µM. For the same compound, the TGI (T-47D breast) was 10.7 µM, the TGI (OVCAR-4 ovarian) was 4.08 µM and the TGI (BT-549 breast) was 18.9 µM. It also gave a TGI (HS 578T breast) of 58.5 µM, a TGI (SN12C renal) of 26.5 µM and a TGI (NCI-H522 lung) of 6.36 µM. It also gave a TGI (SF-268 CNS) of 30.5 µM, a TGI (M14 melanoma) of 22.1 µM and a TGI (CAKI-1 renal) of 11.8 µM. For the same compound, the TGI (KM12 colon) was 60.7 µM, the TGI (UACC-257 melanoma) was 23.1 µM and the TGI (IGROV1 ovarian) was 29.9 µM. For the same compound, the TGI (OVCAR-5 ovarian) was 28.3 µM, the TGI (786-0 renal) was 9.2 µM and the TGI (MALME-3M melanoma) was 12.2 µM. It also gave a TGI (OVCAR-3 ovarian) of 20.9 µM, a TGI (HCT-15 colon) of 12.1 µM and a TGI (HOP-62 NSCLC) of 48 µM. It also gave a TGI (COLO 205 colon) of 6.9 µM.

Work on `O=C1C(c2ccccc2)=[N+]([O-])c2cc([N+](=O)[O-])c(/C(Cl)=C/c3ccccc3)cc21` yielded a TGI (LOX IMVI melanoma) of 26.6 µM, a TGI (SNB-75 CNS) of 62.8 µM and a TGI (NCI-H23 lung) of 60.1 µM. It also gave a TGI (DLD-1 colon) of 45 µM, a TGI (ACHN renal) of 94.4 µM and a TGI (K-562 leukemia) of 37.7 µM. For the same compound, the TGI (OVCAR-8 ovarian) was 34.2 µM, the TGI (SNB-19 CNS) was greater than 100 µM and the TGI (HT29 colon) was 58.2 µM. For the same compound, the TGI (SK-MEL-28 melanoma) was 61 µM, the TGI (DMS 114 small cell lung) was 22.9 µM and the TGI (A549 NSCLC) was greater than 100 µM. For the same compound, the TGI (RXF-631 renal) was 21.4 µM, the TGI (SNB-78 CNS) was 96.9 µM and the TGI (SK-OV-3 ovarian) was greater than 100 µM. The TGI (NCI-H226 lung) was greater than 100 µM, the TGI (SF-539 CNS) was 54.8 µM and the TGI (SF-295 CNS) was greater than 100 µM. It also gave a TGI (TK-10 renal) of 82.3 µM, a TGI (SR leukemia) of 53 µM and a TGI (UO-31 renal) greater than 100 µM. For the same compound, the TGI (HL-60(TB) leukemia) was 18.4 µM, the TGI (U251 CNS) was 39.7 µM and the TGI (M19-MEL melanoma) was 28.9 µM. The TGI (RXF 393 renal) was 51.6 µM, the TGI (CCRF-CEM leukemia) was 40.3 µM and the TGI (DMS 273 small cell lung) was 37.2 µM. For the same compound, the TGI (UACC-62 melanoma) was 83.4 µM, the TGI (RPMI-8226 leukemia) was 42.5 µM and the TGI (SW-620 colon) was 31.1 µM. The TGI (SK-MEL-5 melanoma) was 44.4 µM, the TGI (EKVX NSCLC) was 78.9 µM and the TGI (MOLT-4 leukemia) was 49.2 µM. For the same compound, the TGI (HOP-18 NSCLC) was 75.5 µM, the TGI (OVCAR-4 ovarian) was 30.7 µM and the TGI (SF-268 CNS) was greater than 100 µM. For the same compound, the TGI (M14 melanoma) was 40.9 µM, the TGI (KM12 colon) was 59.8 µM and the TGI (IGROV1 ovarian) was 57.5 µM. It also gave a TGI (OVCAR-5 ovarian) of 59.1 µM, a TGI (786-0 renal) of 82.9 µM and a TGI (OVCAR-3 ovarian) of 27 µM. It also gave a TGI (COLO 205 colon) of 31 µM.
